Read-outs that look alike come from different tables or passages of the source.

By Emax is commonly meant the size of the effect at its maximum, as opposed to the concentration needed. A word on the EC50: it is the concentration giving half of the maximal effect.

One test addresses human GLP1R (hGLP1R) (Homo sapiens, UniProt P43220). Put plainly: Human GLP1R cAMP agonist assay (GloSensor). The test is classed as cell-based. Particulars: for Emax: read-out: Emax mean; for EC50: intracellular cAMP, mean n=3 where SEM is given. On the procedure: (§1) Compounds 1 to 31 were tested in the following cellular assays that measure the intracellular cAMP concentration, beta-arrestin recruitment and receptor internalization. The cAMP is generated by the activation of GLP1R. The cAMP data obtained is shown in Table 1 (where S.E.M. is included, mean n=3 independent experiments+/−S.E.M). Beta-arrestin is recruited upon activation of GLP1R and the data obtained are shown in Table 2 (mean n=2 independent experiments, +/−S.D). The extent to which the GLP1R is internalized into the cell and away from the plasma membrane following activation is also shown in Table 2 (mean n=2 independent experiments, +/−S.D). EC50 for each assay is defined as the concentration of the compound that leads to half of the maximum response (after baseline correction). Emax is defined as the maximum response observed for the test compound, normalized to the maximum response observed for the endogenous ligand (GLP1(7-36)) to GLP1R.
Human GLP1R cAMP Agonist Assay
The agonist activity of compounds was determined using the GloSensor™ cAMP Assay (Promega Corp.), which measures changes in the intracellular concentration of cAMP after ligand activation of GPCRs. The assay uses a biosensor encoded by pGloSensor™-22F cAMP plasmid (Promega, cat #E2301) with cAMP binding domains fused to a mutant form of Photinus pyralis luciferase. Binding to cAMP causes conformational changes that promote large increases in light output, which can be measured by a luminescence detector. HEK293-SNAP-hGLP1R-GloSensor cells stably overexpressing the human GLP1 receptor (hGLP1R) and pGloSensor™-22F were seeded in white 384-well poly-D-Lysine coated plates (Greiner Bio One, cat #781945) in CO2-independent media (Gibco cat #18045-088 with 1.0% FBS, 2 mM L-glutamine, penicillin and streptomycin) and incubated overnight at 37° C., 5% CO2 with humidity. The assay was started the following morning by adding an equal volume of CO2-independent media containing 4% v/v dilution of the GloSensor substrate (Promega, cat #E1291) to all wells. The cell plate was incubated at rt for 2 h in the dark. The Biomek 7 (Beckman Coulter) instrument was used for the liquid handling steps. To generate duplicate dose response curves, 3-fold serially diluted compounds were added in to the cell assay plate to a final volume of 60 μL with final concentrations ranging from 30 μM through 0.06 μM in CO2-independent media containing 0.1% BSA, 0.5 mM IBMX and 0.4% DMSO. In the same plate and assay buffer as the tested compounds, were EC100 control wells containing GLP1 (7-36) peptide (Bachem, cat #H-6795) at a final concentration of 2 nM and also EC0 control wells containing no peptide. This plate was incubated at rt in the dark for 12 min after adding the compounds to the cells. Luminescence was then measured with an Envision 2104 Multilabel reader with “TRF Light Unit, 337 nm” (PerkinElmer) using the Ultra-Sensitive protocol setting “384-well US luminescence detector” with the 384-well luminescence aperture, 0.1 seconds per well. cAMP activity was calculated as percent of the GLP1 (7-36) EC100 control wells: [(sample signal−mean EC0 signal)/(mean EC100 of GLP1 (7-36) signal−mean EC0 signal)}*100. Curve fitting for EC50 determinations was performed in the Helios module of the software package DAVID. The 4-parameter logistic model, Hill slope was used: y=Ainf+(A0−Ainf)/(1+(x/AC50)^Hill Slope) where y is the functional response; x is the compound concentration; A0 is the minimum value (at 0 dose); Ainf is the maximum value (at infinite dose); AC50 corresponds to the point of inflection (i.e. the point on the sigmoid shaped curve halfway between A0 and Ainf). The EC50 value was represented by the AC50 value calculated from Helios in μM. Emax is the maximal activity detected within the concentration range, derived from the fitted curve. […]

The target in a further test is human GLP1R (Homo sapiens, UniProt P43220). Put plainly: Human GLP1R DERET internalization assay. Particulars: HEK293-SNAP-hGLP1R-GloSensor cells; for EC50: mean n=2; for Emax: relative to GLP1(7-36). The format is cell-based. On the procedure: as §1
Sequence of human GLP1R (P43220 24-463): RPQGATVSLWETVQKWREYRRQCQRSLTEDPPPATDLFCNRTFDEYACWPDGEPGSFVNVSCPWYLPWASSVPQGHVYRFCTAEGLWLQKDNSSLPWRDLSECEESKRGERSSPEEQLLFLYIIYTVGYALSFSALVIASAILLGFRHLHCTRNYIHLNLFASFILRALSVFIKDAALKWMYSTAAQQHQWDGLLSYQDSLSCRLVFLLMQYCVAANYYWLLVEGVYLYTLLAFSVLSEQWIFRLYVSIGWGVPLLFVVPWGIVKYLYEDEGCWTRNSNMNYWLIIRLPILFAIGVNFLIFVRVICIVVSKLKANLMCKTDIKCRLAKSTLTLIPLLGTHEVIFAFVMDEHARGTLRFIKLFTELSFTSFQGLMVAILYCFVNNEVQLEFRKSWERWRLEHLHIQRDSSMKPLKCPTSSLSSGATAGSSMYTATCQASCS
The extent to which agonists internalize the human GLP1R was determined based on an optimized version of a RealTime FRET-based ‘DERET’ (Dissociation Enhanced Resonance Energy Transfer) assay. The technology relies on labeling of the SNAP-tagged GPCR with a SNAP-Lumi-Terbium (donor fluorophore, Cisbio, cat #SSNPTBD). The compounds are incubated with the cells over-expressing the GPCR of interest in the presence of an excess of fluorescein (acceptor fluorophore). When the GPCR is on the cell surface, the donor signal is quenched by the acceptor and the donor/acceptor ratio is low. As the GPCR internalizes, the donor signal is no longer quenched, and the acceptor is no longer excited so the donor/acceptor ratio increases.
HEK293-SNAP-hGLP1R-GloSensor cells (stably overexpressing SNAP-tagged hGLP1R) were seeded overnight in white 384-well poly-D-Lysine coated plates (Greiner Bio One, cat #781945) in regular DMEM growth medium (Gibco, cat #11965-092, 10% heat-inactivated FBS, 10 mM HEPES, 1× penicillin/streptomycin, 0.5 mg/mL geneticin (Gibco, cat #10131-035) and 0.25 mg/mL hygromycin B (Invitrogen, cat #10687010). On the assay day, cell medium was removed and 100 nM SNAP-Lumi-Tb reagent was added in Opti-MEM solution. The cells were incubated at 37° C. for 1 h. Cells were washed using a plate washer in assay buffer [1×HBSS (10× Gibco, cat #14065-056), 20 mM Hepes (Gibco, cat #15630-080), 1 mM CaCl2 (Fluka, cat #21114-1L), 1 mM MgCl2 (Ambion, cat #AM9530G) pH7.4], and 20 μL buffer with 0.1% BSA was added to each well. After leaving cells to equilibrate for ˜15 min at 37° C., 10 μL of Fluorescein (sodium salt, Sigma, cat #F6377, diluted in buffer) was added at 25 μM final concentration. To generate triplicate dose response curves, compounds were serially diluted 3-fold in assay buffer, then added to the cell assay plate to a final volume of 40 μL and final top concentrations starting at 30 μM. In the same plate and assay buffer as the tested compounds, a GLP1 (7-36) peptide (Bachem, cat #H-6795) control curve was included at a final top concentration of 1 μM in order to establish EC100. EC0 wells with buffer only were also included. The plate FRET fluorescence was measured immediately using a Perkin Elmer Envision with LANCE/DELFIA D400 single mirror, excitation filter X320, and emission filters M615_203 (donor emission) and M515 (acceptor emission), and then measured every 30 min. […] Plates were kept at 37° C. between reads. Data was expressed as the ratio of donor/acceptor emissions using Microsoft Excel and plotted in GraphPad Prism. In order to determine EC50 and Emax for internalization, data was calculated and expressed as percent of the GLP1 (7-36) EC100 control wells: [(sample signal−mean EC0 signal)/(mean EC100 of GLP1 (7-36) signal−mean EC0 signal)]*100 using Microsoft Excel. Curve fitting for EC50 determinations was performed using GraphPad Prism. The 4-parameter logistic model, Hill slope was used:
Y=Bottom+(Top−Bottom)/(1+10^((Log EC50−X)*Hill Slope)), […]

Where [1] appears, read: HEK293-SNAP-hGLP1R-GloSensor cells, cAMP, normalized to GLP1(7-36) maximum response.
Setting [2] is: HEK293-SNAP-hGLP1R-GloSensor cells.

Sequence of human GLP1R (hGLP1R) (P43220 24-463): as above

Regarding `C[C@]1(c2ccc(Cl)cc2F)Oc2cccc(C3CCN(Cc4nc(F)c(/C=C/C(=O)O)n4C[C@@H]4CCO4)CC3)c2O1` [Compound C-18, (E)-3-(2-((4-((S)-2-(4-chloro-2-fluorophenyl)-2-methylbenzo[d][1,3]dioxol-4-yl)piperidin-1-yl)methyl)-4-fluoro-1-(((S)-oxetan-2-yl)methyl)-1H-imidazol-5-yl)acrylic acid], the Emax was 116% on human GLP1R (hGLP1R) (setting [1]) and 90% on human GLP1R. Further, the values for the EC50 at human GLP1R (hGLP1R) (setting [2]) and on human GLP1R were 0.0253 nM and 197 nM, respectively.

Take `Cc1nc(CN2CCC(c3cccc4c3O[C@@](C)(c3ccc(Cl)cc3F)O4)CC2)n(C[C@@H]2CCO2)c1CCC(=O)O` [Compound C-14, 3-(2-((4-((S)-2-(4-chloro-2-fluorophenyl)-2-methylbenzo[d][1,3]dioxol-4-yl)piperidin-1-yl)methyl)-4-methyl-1-(((S)-oxetan-2-yl)methyl)-1H-imidazol-5-yl)propanoic acid]: the Emax at human GLP1R (hGLP1R) (setting [1]) came to 107%; at human GLP1R it was 28%. Further, the figures for the EC50 on human GLP1R (hGLP1R) (setting [2]) and at human GLP1R were 0.254 nM and 3370 nM, respectively.

Take `C[C@]1(c2ccc(Cl)cc2F)Oc2cccc(C3CCN(Cc4nc(C(F)(F)F)c(-c5nc(=O)o[nH]5)n4C[C@@H]4CCO4)CC3)c2O1` [Compound C-26, 3-(2-((4-((S)-2-(4-chloro-2-fluorophenyl)-2-methylbenzo[d][1,3]dioxol-4-yl)piperidin-1-yl)methyl)-1-(((S)-oxetan-2-yl)methyl)-4-(trifluoromethyl)-1H-imidazol-5-yl)-1,2,4-oxadiazol-5(2H)-one]: the EC50 is 0.922 nM at human GLP1R (hGLP1R) (setting [2]) and over 30000 nM on human GLP1R. The Emax was 99% on human GLP1R (hGLP1R) and -6% on human GLP1R.

In the case of `Cc1nc(CN2CCC(c3cccc4c3O[C@@](C)(c3ccc(Cl)cc3F)O4)CC2)n(C[C@@H]2CCO2)c1-c1nc(=O)o[nH]1` [Compound C-20, 3-(2-((4-((S)-2-(4-chloro-2-fluorophenyl)-2-methylbenzo[d][1,3]dioxol-4-yl)piperidin-1-yl)methyl)-4-methyl-1-(((S)-oxetan-2-yl)methyl)-1H-imidazol-5-yl)-1,2,4-oxadiazol-5(2H)-one], the EC50 at human GLP1R (hGLP1R) (setting [2]) is 0.202 nM; on human GLP1R, over 30000 nM. Moreover, the Emax on human GLP1R (hGLP1R) stood at 104%; on human GLP1R, 6%.

Turning to `Cc1nc(CN2CCC(c3cccc4c3O[C@@](C)(c3ccc(Cl)cc3F)O4)CC2)n(C[C@@H]2CCO2)c1/C=C(/F)C(=O)O` [Compound C-19a, (E)-3-(2-((4-((S)-2-(4-chloro-2-fluorophenyl)-2-methylbenzo[d][1,3]dioxol-4-yl)piperidin-1-yl)methyl)-4-methyl-1-(((S)-oxetan-2-yl)methyl)-1H-imidazol-5-yl)-2-fluoroacrylic acid], the Emax on human GLP1R (hGLP1R) (setting [1]) turned out to be 110%; on human GLP1R, 27%. In addition, the figures for the EC50 at human GLP1R (hGLP1R) (setting [2]) and at human GLP1R were 0.0137 nM and 86 nM, respectively.

Regarding `Cc1nc(CN2CCC(c3cccc4c3O[C@@](C)(c3ccc(Cl)cc3F)O4)CC2)n(C[C@@H]2CCO2)c1C#CC(=O)O` [Compound C-22, 3-(2-((4-((S)-2-(4-chloro-2-fluorophenyl)-2-methylbenzo[d][1,3]dioxol-4-yl)piperidin-1-yl)methyl)-4-methyl-1-(((S)-oxetan-2-yl)methyl)-1H-imidazol-5-yl)propiolic acid], the results for the Emax on human GLP1R (hGLP1R) (setting [1]) and on human GLP1R were 102% and 76%, respectively. The EC50 at human GLP1R (hGLP1R) (setting [2]) amounted to 0.00397 nM; at human GLP1R, 18 nM.

In the case of `Cc1nc(CN2CCC(c3cccc4c3O[C@@](C)(c3ccc(Cl)cc3F)O4)CC2)n(C[C@@H]2CCO2)c1CC(F)C(=O)O` (stereo partly drawn) [Compound C-15, 3-(2-((4-((S)-2-(4-chloro-2-fluorophenyl)-2-methylbenzo[d][1,3]dioxol-4-yl)piperidin-1-yl)methyl)-4-methyl-1-(((S)-oxetan-2-yl)methyl)-1H-imidazol-5-yl)-2-fluoropropanoic acid], the Emax on human GLP1R (hGLP1R) (setting [1]) was 109%; on human GLP1R, 41%. Further, the half-maximal effective concentration (EC50) on human GLP1R (hGLP1R) (setting [2]) was 0.253 nM; at human GLP1R, over 30000 nM.

In the case of `Cc1c(-c2cncc(C(=O)O)c2)nc(CN2CCC(c3cccc4c3O[C@@](C)(c3ccc(Cl)cc3F)O4)CC2)n1C[C@@H]1CCO1` [Compound C-12, 5-(2-((4-((S)-2-(4-chloro-2-fluorophenyl)-2-methylbenzo[d][1,3]dioxol-4-yl)piperidin-1-yl)methyl)-5-methyl-1-(((S)-oxetan-2-yl)methyl)-1H-imidazol-4-yl)nicotinic acid], the results for the Emax at human GLP1R (hGLP1R) (setting [1]) and at human GLP1R were 113% and 10%, respectively. Further, the concentration giving a half-maximal response (EC50) at human GLP1R (hGLP1R) (setting [2]) was 0.6 nM; on human GLP1R, over 30000 nM.

Consider `Cc1nc(CN2CCC(c3cccc4c3O[C@@](C)(c3ccc(Cl)cc3F)O4)CC2)n(C[C@@H]2CCO2)c1/C=C(\F)C(=O)O` [Compound C-19b, (Z)-3-(2-((4-((S)-2-(4-chloro-2-fluorophenyl)-2-methylbenzo[d][1,3]dioxol-4-yl)piperidin-1-yl)methyl)-4-methyl-1-(((S)-oxetan-2-yl)methyl)-1H-imidazol-5-yl)-2-fluoroacrylic acid], for which the Emax stood at 111% at human GLP1R (hGLP1R) (setting [1]) and 27% on human GLP1R. In addition, the EC50 on human GLP1R (hGLP1R) (setting [2]) was 0.98 nM; on human GLP1R, over 30000 nM.

For the origin of these results see US20240182456A1, “2-((4-((S)-2-(4-CHLORO-2-FLUOROPHENYL)-2-METHYLBENZO[D][1,3]DIOXOL-4-YL)PIPERIDIN-1-YL)METHYL)-1-(((S)-OXETAN-2-YL)METHYL)-1H-IMIDAZOLE DERIVATIVES AS ACTIVATORS OF THE GLP1 RECEPTOR FOR THE TREATMENT OF OBESITY” (Novartis AG, priority 2021, published 2024).
